Experiments:
[1] = target: T1, Peregrin (Homo sapiens, UniProt P55201); experiment: Binding affinity to BRPF1 (unknown origin) by BROMOscan panel based assay
T1 sequence (P55201 whole entry): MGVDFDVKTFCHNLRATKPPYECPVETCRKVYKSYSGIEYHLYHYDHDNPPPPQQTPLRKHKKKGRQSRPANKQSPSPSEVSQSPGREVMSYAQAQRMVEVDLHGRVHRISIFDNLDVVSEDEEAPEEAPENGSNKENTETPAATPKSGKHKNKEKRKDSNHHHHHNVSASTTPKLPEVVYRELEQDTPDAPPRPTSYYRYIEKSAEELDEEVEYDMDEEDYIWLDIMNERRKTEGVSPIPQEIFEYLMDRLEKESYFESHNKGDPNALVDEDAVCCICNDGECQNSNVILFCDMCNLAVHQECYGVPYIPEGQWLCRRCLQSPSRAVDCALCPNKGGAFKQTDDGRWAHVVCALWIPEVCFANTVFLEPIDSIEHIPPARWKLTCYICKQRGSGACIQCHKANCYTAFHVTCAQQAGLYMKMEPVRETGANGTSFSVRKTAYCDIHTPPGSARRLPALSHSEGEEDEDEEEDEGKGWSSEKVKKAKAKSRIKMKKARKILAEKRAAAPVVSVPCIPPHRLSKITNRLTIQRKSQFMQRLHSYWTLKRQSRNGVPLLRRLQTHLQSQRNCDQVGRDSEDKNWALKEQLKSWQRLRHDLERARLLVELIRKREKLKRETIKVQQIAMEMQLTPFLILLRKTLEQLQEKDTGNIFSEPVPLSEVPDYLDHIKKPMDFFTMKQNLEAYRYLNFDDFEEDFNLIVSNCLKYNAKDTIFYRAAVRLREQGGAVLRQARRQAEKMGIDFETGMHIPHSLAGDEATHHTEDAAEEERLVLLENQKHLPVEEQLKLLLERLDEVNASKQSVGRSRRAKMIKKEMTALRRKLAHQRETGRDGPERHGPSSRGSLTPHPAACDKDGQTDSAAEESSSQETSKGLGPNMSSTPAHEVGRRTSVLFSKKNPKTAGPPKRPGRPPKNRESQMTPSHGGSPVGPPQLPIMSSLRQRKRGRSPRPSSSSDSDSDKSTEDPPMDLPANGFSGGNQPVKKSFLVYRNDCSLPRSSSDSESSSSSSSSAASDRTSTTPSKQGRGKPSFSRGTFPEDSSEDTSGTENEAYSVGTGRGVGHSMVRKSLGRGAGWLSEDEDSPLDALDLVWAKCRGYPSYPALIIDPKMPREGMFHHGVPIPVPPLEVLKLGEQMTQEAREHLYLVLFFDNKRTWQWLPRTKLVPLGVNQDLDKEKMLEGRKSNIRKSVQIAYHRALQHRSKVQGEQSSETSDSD

[2] = target: Transcription initiation factor TFIID subunit 1-like (Homo sapiens, UniProt Q8IZX4); experiment: Binding affinity to TAF1L (unknown origin) by BROMOscan panel based assay
[3] = target: T2, Bromodomain-containing protein 2 (Homo sapiens, UniProt P25440); experiment: Binding affinity to BRD2 containing BD1 bromodomains (unknown origin) by TR-FRET assay
[4] = target: T3, ATPase family AAA domain-containing protein 2B (Homo sapiens, UniProt Q9ULI0); experiment: Binding affinity to ATAD2B in human HUT78 cells incubated for 45 mins by mass spectrometry based bromosphere chemoproteomic assay; type: cell-based
[5] = target: Transcription initiation factor TFIID subunit 1 (Homo sapiens, UniProt P21675); experiment: Binding affinity to TAF1 (unknown origin) by BROMOscan panel based assay
[6] = target: Bromodomain-containing protein 4 (Homo sapiens, UniProt O60885, Y390A)
[7] = target: Chromatin remodeling regulator CECR2 (Homo sapiens, UniProt Q9BXF3); experiment: Binding affinity to CECR2 (unknown origin) by BROMOscan panel based assay
[8] = target: Bromodomain-containing protein 7 (Homo sapiens, UniProt Q9NPI1); experiment: Binding affinity to BRD7 in human HUT78 cells incubated for 45 mins by mass spectrometry based bromosphere chemoproteomic assay; type: cell-based
[9] = target: T1, Peregrin; experiment: Binding affinity to BRPF1 in human HUT78 cells incubated for 45 mins by mass spectrometry based bromosphere chemoproteomic assay; type: cell-based
[10] = target: Protein polybromo-1 (Homo sapiens, UniProt Q86U86); experiment: Binding affinity to PBRM1 in human HUT78 cells incubated for 45 mins by mass spectrometry based bromosphere chemoproteomic assay; type: cell-based
[11] = target: Bromodomain adjacent to zinc finger domain protein 2A (Homo sapiens, UniProt Q9UIF9); experiment: Binding affinity to BAZ2A in human HUT78 cells incubated for 45 mins by mass spectrometry based bromosphere chemoproteomic assay; type: cell-based
[12] = target: T2, Bromodomain-containing protein 2; experiment: Binding affinity to BRD2 containing BD2 bromodomains (unknown origin) by TR-FRET assay
[13] = target: T4, Bromodomain testis-specific protein (Homo sapiens, UniProt Q58F21); experiment: Binding affinity to BRDt containing BD1 bromodomains (unknown origin) by TR-FRET assay
[14] = target: T5, Bromodomain-containing protein 4 (Homo sapiens, UniProt O60885); experiment: Binding affinity to BRD4 containing BD1 bromodomains (unknown origin) by TR-FRET assay
[15] = target: T4, Bromodomain testis-specific protein; experiment: Binding affinity to BRDt containing BD2 bromodomains (unknown origin) by TR-FRET assay
[16] = target: Histone acetyltransferase KAT2A (Homo sapiens, UniProt Q92830); experiment: Binding affinity to KAT2A in human HUT78 cells incubated for 45 mins by mass spectrometry based bromosphere chemoproteomic assay; type: cell-based
[17] = target: Tyrosine-protein kinase BAZ1B (Homo sapiens, UniProt Q9UIG0); experiment: Binding affinity to BAZ1B in human HUT78 cells incubated for 45 mins by mass spectrometry based bromosphere chemoproteomic assay; type: cell-based
[18] = target: T6, Bromodomain-containing protein 3 (Homo sapiens, UniProt Q15059); experiment: Binding affinity to BRD3 in human HUT78 cells incubated for 45 mins by mass spectrometry based bromosphere chemoproteomic assay; type: cell-based
[19] = target: T3, ATPase family AAA domain-containing protein 2B; experiment: Binding affinity to ATAD2B (unknown origin) by BROMOscan panel based assay
[20] = target: T6, Bromodomain-containing protein 3; experiment: Binding affinity to BRD3 containing BD2 bromodomains (unknown origin) by TR-FRET assay
[21] = Distribution coefficient, log D of the compound at pH 7.4 by chromatographic method; type: physicochemical; conditions: octanol/water
[22] = target: Nucleosome-remodeling factor subunit BPTF (Homo sapiens, UniProt Q12830); experiment: Binding affinity to BPTF in human HUT78 cells incubated for 45 mins by mass spectrometry based bromosphere chemoproteomic assay; type: cell-based
[23] = target: T5, Bromodomain-containing protein 4; experiment: Binding affinity to BRD4 in human HUT78 cells incubated for 45 mins by mass spectrometry based bromosphere chemoproteomic assay; type: cell-based

T3 sequence (Q9ULI0 whole entry, the tested form may be a part): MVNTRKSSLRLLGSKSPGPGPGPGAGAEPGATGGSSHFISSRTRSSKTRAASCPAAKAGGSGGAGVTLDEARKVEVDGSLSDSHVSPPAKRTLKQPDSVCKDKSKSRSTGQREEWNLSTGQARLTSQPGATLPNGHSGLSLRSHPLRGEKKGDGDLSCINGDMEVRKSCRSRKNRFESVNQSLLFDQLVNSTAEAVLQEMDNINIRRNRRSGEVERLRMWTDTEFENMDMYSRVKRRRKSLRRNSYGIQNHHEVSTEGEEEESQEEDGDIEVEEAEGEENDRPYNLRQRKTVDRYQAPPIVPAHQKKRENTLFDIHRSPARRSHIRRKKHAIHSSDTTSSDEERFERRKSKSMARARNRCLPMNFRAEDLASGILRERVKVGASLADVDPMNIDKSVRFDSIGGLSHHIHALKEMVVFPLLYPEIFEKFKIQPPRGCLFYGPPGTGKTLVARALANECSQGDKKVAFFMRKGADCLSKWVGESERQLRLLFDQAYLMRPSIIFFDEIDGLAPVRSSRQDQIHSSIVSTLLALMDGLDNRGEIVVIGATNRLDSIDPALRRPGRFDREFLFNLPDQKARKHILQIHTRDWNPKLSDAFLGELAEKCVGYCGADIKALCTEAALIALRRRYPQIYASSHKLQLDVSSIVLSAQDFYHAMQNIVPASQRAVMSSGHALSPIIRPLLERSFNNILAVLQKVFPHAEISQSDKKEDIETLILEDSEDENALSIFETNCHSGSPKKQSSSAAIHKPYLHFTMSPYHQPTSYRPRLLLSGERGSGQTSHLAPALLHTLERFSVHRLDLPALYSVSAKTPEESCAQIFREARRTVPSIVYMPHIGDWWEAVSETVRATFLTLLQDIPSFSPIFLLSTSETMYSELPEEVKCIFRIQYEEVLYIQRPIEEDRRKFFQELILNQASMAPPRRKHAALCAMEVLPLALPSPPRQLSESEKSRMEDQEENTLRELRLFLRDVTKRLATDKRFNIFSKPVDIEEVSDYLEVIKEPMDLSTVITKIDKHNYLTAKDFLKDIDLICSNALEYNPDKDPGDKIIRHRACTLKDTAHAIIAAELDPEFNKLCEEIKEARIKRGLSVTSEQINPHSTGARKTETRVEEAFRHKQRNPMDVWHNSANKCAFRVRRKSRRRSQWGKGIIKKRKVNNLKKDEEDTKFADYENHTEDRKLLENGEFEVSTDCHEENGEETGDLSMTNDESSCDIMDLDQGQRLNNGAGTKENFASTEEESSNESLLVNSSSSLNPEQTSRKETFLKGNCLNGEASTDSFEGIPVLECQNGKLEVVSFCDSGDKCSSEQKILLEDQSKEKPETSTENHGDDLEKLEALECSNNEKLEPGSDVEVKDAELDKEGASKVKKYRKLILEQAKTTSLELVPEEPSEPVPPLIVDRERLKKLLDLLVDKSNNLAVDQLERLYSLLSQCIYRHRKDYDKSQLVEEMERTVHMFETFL
T2 sequence (P25440 whole entry, the tested form may be a part): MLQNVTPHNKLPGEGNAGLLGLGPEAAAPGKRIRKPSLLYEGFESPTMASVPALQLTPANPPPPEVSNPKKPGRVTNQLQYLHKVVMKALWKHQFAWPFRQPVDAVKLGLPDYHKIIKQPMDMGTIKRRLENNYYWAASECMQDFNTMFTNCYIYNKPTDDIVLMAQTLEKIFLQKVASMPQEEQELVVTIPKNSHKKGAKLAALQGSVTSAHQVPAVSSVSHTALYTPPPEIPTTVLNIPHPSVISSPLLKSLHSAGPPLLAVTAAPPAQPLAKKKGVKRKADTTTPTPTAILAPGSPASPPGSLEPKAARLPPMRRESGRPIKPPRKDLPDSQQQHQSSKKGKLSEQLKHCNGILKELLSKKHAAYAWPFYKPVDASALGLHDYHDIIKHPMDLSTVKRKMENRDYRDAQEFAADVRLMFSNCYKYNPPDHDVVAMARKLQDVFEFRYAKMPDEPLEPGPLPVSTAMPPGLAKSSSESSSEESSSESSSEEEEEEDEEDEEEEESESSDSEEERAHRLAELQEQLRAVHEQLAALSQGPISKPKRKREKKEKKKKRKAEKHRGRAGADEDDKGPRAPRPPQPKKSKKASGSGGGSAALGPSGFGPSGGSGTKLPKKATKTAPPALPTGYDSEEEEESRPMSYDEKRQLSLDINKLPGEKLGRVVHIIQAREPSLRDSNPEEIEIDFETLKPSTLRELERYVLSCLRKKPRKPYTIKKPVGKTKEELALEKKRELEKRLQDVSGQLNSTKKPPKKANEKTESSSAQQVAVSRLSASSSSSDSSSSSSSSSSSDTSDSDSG
T6 sequence (Q15059 whole entry, the tested form may be a part): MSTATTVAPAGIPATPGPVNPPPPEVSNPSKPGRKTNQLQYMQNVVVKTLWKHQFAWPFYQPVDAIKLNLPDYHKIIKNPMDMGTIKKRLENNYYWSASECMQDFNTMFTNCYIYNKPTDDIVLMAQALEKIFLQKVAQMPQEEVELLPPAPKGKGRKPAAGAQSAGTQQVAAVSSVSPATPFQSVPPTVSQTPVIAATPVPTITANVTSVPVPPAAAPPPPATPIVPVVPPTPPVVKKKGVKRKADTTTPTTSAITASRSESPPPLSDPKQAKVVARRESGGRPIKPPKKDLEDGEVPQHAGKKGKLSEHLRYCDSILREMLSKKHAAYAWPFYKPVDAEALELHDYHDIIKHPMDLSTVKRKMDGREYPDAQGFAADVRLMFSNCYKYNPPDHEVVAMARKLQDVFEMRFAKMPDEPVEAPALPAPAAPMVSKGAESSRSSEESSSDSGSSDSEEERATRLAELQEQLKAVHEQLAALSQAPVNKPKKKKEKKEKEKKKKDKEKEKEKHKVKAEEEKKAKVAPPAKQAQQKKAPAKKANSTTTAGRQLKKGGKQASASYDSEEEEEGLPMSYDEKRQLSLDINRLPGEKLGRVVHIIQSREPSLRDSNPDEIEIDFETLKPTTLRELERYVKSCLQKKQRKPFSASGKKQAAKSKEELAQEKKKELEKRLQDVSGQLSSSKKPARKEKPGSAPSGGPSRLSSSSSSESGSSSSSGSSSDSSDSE
Chain of Bromodomain adjacent to zinc finger domain protein 2A (Q9UIF9 whole entry, the tested form may be a part): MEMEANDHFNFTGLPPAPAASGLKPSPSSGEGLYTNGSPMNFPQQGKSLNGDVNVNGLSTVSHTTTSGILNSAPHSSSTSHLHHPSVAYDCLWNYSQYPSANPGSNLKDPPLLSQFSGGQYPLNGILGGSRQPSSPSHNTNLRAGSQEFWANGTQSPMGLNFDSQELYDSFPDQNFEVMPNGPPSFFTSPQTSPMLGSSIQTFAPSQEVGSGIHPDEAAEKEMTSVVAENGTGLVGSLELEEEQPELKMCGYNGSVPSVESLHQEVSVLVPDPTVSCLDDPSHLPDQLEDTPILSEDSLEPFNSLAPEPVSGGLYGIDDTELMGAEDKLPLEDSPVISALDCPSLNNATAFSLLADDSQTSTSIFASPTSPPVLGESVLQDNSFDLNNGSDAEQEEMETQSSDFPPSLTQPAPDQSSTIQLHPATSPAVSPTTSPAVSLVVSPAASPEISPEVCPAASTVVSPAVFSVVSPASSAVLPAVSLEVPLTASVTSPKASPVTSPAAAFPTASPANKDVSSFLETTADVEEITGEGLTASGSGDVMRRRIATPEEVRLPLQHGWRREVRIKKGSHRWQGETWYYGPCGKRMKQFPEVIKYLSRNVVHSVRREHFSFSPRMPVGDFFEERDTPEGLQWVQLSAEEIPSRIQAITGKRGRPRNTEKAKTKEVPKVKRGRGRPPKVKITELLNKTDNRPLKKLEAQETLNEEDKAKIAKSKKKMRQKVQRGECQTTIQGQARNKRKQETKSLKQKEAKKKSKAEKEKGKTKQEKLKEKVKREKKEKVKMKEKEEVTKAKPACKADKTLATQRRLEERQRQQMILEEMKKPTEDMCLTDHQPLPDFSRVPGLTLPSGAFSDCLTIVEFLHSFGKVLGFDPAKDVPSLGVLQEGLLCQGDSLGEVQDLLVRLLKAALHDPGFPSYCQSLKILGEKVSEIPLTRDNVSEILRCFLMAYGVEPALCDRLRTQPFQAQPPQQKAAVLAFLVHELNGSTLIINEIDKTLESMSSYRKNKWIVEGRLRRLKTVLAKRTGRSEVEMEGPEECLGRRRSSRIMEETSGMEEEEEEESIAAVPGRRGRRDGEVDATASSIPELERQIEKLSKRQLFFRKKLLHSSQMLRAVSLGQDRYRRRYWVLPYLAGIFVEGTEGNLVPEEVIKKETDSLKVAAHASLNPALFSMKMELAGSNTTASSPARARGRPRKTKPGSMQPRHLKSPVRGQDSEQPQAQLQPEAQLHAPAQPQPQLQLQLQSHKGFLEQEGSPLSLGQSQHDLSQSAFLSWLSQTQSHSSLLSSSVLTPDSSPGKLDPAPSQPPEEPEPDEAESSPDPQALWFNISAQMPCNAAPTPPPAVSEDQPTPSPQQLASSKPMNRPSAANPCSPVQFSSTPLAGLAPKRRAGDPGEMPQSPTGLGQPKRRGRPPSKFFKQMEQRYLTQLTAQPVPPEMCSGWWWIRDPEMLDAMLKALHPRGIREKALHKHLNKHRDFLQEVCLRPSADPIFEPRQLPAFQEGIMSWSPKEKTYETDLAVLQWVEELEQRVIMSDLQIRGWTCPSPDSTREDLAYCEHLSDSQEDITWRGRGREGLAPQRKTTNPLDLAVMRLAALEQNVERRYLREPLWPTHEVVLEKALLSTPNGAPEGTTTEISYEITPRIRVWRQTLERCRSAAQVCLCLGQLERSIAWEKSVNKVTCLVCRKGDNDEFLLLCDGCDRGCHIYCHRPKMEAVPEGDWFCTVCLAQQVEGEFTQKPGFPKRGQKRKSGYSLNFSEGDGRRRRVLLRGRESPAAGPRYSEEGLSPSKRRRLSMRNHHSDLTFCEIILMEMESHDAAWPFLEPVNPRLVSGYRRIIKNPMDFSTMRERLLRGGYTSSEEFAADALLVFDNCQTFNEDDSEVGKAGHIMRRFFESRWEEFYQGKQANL

- Ki [1]: 5.01 µM
- Ki [2]: 0.126 µM
- IC50 [3]: > 50.1 µM
- Kd [4]: 0.1 µM
- Ki [5]: 0.0501 µM
- IC50 [6]: 79.4 µM
- Ki [7]: 0.794 µM
- Kd [8]: 31.6 µM
- Kd [9]: > 100 µM
- Kd [10]: > 100 µM
- Kd [11]: > 100 µM
- IC50 [12]: > 50.1 µM
- IC50 [13]: > 50.1 µM
- IC50 [14]: 79.4 µM
- IC50 [15]: > 50.1 µM
- Kd [16]: > 100 µM
- Kd [17]: > 100 µM
- Kd [18]: > 100 µM
- Ki [19]: 0.0398 µM
- IC50 [20]: > 50.1 µM
- chromatographic logD [21]: 2.3
- Kd [22]: > 100 µM
- Kd [23]: 20 µM
SMILES: Cc1cncc(-c2cnc(N[C@@H]3CCN(C)C[C@H]3OCC3CCS(=O)(=O)CC3)c3[nH]c(=O)c(C)cc23)c1

— ChEMBL document CHEMBL3588744, “Structure-Based Optimization of Naphthyridones into Potent ATAD2 Bromodomain Inhibitors” (J Med Chem, 2015)
